Laboratory results: PMC8081377 (Mutagenesis, 2021)
Read-outs that look alike come from different tables or passages of the source.

Assays:
[1] = tested on: V79, CHO, CHL, HuLy, TK6, HepG2, L5178Y cells; settings: cited from earlier work
[2] = tested on: EpiDerm™ EPI-200-MNA skin tissues; settings: for top/maximum dose tested, limited by excessive or strong cytotoxicity: % VCC or % BN
[3] = tested on: CHO, CHL, V79, HuLy cells; settings: cited from earlier work
[4] = cited from earlier work
[5] = tested on: EpiDerm™ EPI-200-MNA skin tissues
[6] = tested on: reconstructed human skin (RS) tissues; settings: cited from earlier work; for detection of DNA damage, RS Comet assay versus RSMN assay: direct treatment with genotoxic metabolites of 2-AAF
stomach, liver = settings: rats, daily treatment for 3 days, initial evaluation; cited from earlier work
multiple tissues = settings: mice, single i.p. injection; cited from earlier work
RS tissues = settings: cited from earlier work; for RSMN result with the 72-h protocol: contract research lab
[7] = topically-applied; cited from earlier work
mouse lymphoma cells = settings: cited from earlier work
[8] = three treatments, vs solvent control
[9] = two treatments, vs solvent control
[10] = multiple treatments of RS tissues

Q: What does the source list for `C=CCc1ccc(O)c(OC)c1` [Eugenol]?
A: in vitro MN tests ([1]; ref Supplementary Table S1): positive findings; top/maximum dose tested, limited by excessive or strong cytotoxicity ([2]; lab(s) as stated in the text): 80–100 µg/cm^2; in vitro chromosome aberration tests ([3]; ref Supplementary Table S1): positive findings; carcinogenicity tests ([4]; ref Supplementary Table S1): negative; classification in the RSMN assay by Lab A ([5]; overall call): positive; % MN-BN response in individual experiment(s), Lab A, 72-h protocol [5, 8]: significant increase in the % MN-BN was seen at the two highest doses; % MN-BN response in individual experiment(s), Lab A, 48-h protocol [5, 9]: significant increase in % MN-BN only at one mid-dose

Q: For `CC(=O)N(O)c1ccc2c(c1)Cc1ccccc1-2` [N-hydroxy-2-acetylaminofluorene], which “detection of DNA damage, RS Comet assay versus RSMN assay” value [6] is on record?
A: Its value is “more efficiently detected in the RS Comet assay than in the RSMN assay”.

Q: With `[Cl][Cd][Cl]` [Cadmium chloride (CdCl2), Cadmium chloride] as the molecule, how does the “in vivo comet assay result, stomach” value (stomach, liver) read?
A: The value was “positive”.

Q: What about the “top/maximum dose tested, limited by excessive or strong cytotoxicity” value ([2]; lab(s) as stated in the text) of the same molecule?
A: Its value is 160 µg/cm^2.

Q: What about the “doses that caused 50% cytotoxicity” value ([2]; Lab A, 48-h protocol, Phase 2c) of the same molecule?
A: Its value is 100–160 µg/cm^2.

Q: What about the “in vivo comet assay result, multiple tissues” value (multiple tissues) of the same molecule?
A: The value was “negative results”.

Q: And the “classification in the RSMN assay by Lab A” value ([5]; overall call)?
A: Its value is “positive”.

Q: And the “classification in the RSMN assay by Lab B” value ([5]; overall call)?
A: Its value is “negative”.

Q: What about the “classification in the RSMN assay by Lab C” value ([5]; overall call) of the same molecule?
A: The value was “positive”.

Q: And the “% MN-BN response in individual experiment(s), Lab A, 72-h protocol” value [5, 8]?
A: Its value is “clear increase”.

Q: What about the “% MN-BN response in individual experiment(s), Lab B, 72-h protocol” value [5, 8] of the same molecule?
A: Its value is “negative results”.

Q: And the “% MN-BN response in individual experiment(s), Lab A, 48-h protocol” value [5, 9]?
A: The value was “without any significant increase”.

Q: What about the “% MN-BN response in individual experiment(s), Lab B, 48-h protocol” value [5, 9] of the same molecule?
A: The value was “No detectable increase”.

Q: What about the “% MN-BN response in individual experiment(s), Lab C, 48-h protocol” value [5, 9] of the same molecule?
A: The value was “negative”.

Q: With `c1ccc2c(c1)cc1ccc3cccc4ccc2c1c34` [B[a]P] as the molecule, how does the “RSMN result with the 72-h protocol” value (RS tissues) read?
A: The value was “positive results”.

Q: Which “RSMN result with the 72-h protocol” value (RS tissues) does the source give for `O=P1(N(CCCl)CCCl)NCCCO1` (stereo not drawn) [cyclophosphamide] here?
A: Its value is “positive results”.

Q: What does the source list for `CC(=O)Nc1ccc2c(c1)Cc1ccccc1-2` [2-Acetylaminofluorene (2-AAF), 2-Acetylaminofluorene]?
A: response in the RSMN assay (RS tissues; [10]): not in the RSMN assay; DNA damage in the RS Comet assay [6]: weak, but statistically significant and reproducible increase in DNA damage; response in the RS Comet assay [6, 10]: significant response; metabolism in human skin explants [7]: evidence for metabolism; classification in the RSMN assay by Lab B ([5]; overall call): negative; classification in the RSMN assay by Lab C ([5]; overall call): negative; classification in the RSMN assay by Lab D ([5]; overall call): negative; % MN-BN response in individual experiment(s), Lab B, 72-h protocol [5, 8]: without a significant response; % MN-BN response in individual experiment(s), Lab C, 72-h protocol [5, 8]: without a significant response; % MN-BN response in individual experiment(s), Lab B, 48-h protocol [5, 9]: without a significant response; % MN-BN response in individual experiment(s), Lab C, 48-h protocol [5, 9]: without a significant response; % MN-BN response in individual experiment(s), Lab D, 48-h protocol [5, 9]: no significant increase

Q: For `Cc1c2ccccc2c(C)c2c1ccc1ccccc12` [7,12-Dimethylbenz[a]thracene (DMBA), 7,12-Dimethylbenz[a]anthracene], which “result in a previous RSMN study” value (RS tissues; % VCC not used as cytotoxicity measure, higher doses tested) is on record?
A: The value was “positive”.

Q: What about the “top dose, limited by precipitation on the surface of the skin tissues” value ([2]; lab(s) as stated in the text) of the same molecule?
A: The value was 240 µg/cm^2.

Q: What about the “% MN-BN response in individual experiment(s), Lab A, 48-h protocol” value [5] of the same molecule?
A: Its value is “did not increase”.

Q: And the “% MN-BN response in individual experiment(s), Lab A, 72-h protocol” value [5]?
A: Its value is “did not induce an increase”.

Q: What about the “classification in the RSMN assay by Lab A” value [5] of the same molecule?
A: The value was “negative”.

Q: Which results are given for `Cn1c(N)nc2c3cccnc3ccc21` [2-Amino-3-methylimidazo[4,5-f]quinolone]?
A: % BN (excessive cytotoxicity) ([2]; at ≥150 µg/cm^2, 48-h protocol, Lab A): < 20 % BN; detection in the RS Comet assay ([6]; after multiple treatments): not detected; IARC class ([4]; carcinogen classification): 2A; % MN-BN response in individual experiment(s), Lab A, 72-h protocol [5, 8]: Significant increases; % MN-BN response in individual experiment(s), Lab A, 48-h protocol [5, 9]: no increase

Q: Which “in vitro MN tests” value [1] does the source give for `Nc1ccn([C@@H]2O[C@H](CO)[C@@H](O)[C@@H]2O)c(=O)n1` [Cytosine arabinoside] here?
A: The value was “positive”.

Q: What about the “top/maximum dose tested, limited by excessive or strong cytotoxicity” value ([2]; lab(s) as stated in the text) of the same molecule?
A: The value was 48 µg/cm^2.

Q: What about the “in vitro chromosome aberration tests” value [3] of the same molecule?
A: The value was “positive”.

Q: What about the “classification in the RSMN assay by Lab B” value ([5]; overall call) of the same molecule?
A: Its value is “negative”.

Q: And the “% MN-BN response in individual experiment(s), Lab B, 72-h protocol” value [5, 8]?
A: The value was “Negative results”.

Q: What about the “% MN-BN response in individual experiment(s), Lab B, 48-h protocol” value [5, 9] of the same molecule?
A: Its value is “did not show a significant increase”.

Q: Which results are given for `C1=Cc2cc3cccc4ccc5ccc1c2c5c43` [Cyclopenta[c,d]pyrene (CPPE), Cyclopenta[c,d]pyrene]?
A: mouse lymphoma assay (mouse lymphoma cells): positive; maximum dose tested without exceeding the cytotoxicity thresholds ([2]; lack of excessive cytotoxicity, 48-h protocol): 1600 µg/cm^2; skin tumours ([4]; mice, dermal application, ref Supplementary Table S1): induce skin tumours; classification in the RSMN assay by Lab B ([5]; overall call): positive; % MN-BN response in individual experiment(s), Lab B, 72-h protocol [5, 8]: significant increase; % MN-BN response in individual experiment(s), Lab C, 48-h protocol [5, 9]: negative results

Q: For `ONc1ccc2c(c1)Cc1ccccc1-2` [N-hydroxy-2-aminofluorene], which “detection of DNA damage, RS Comet assay versus RSMN assay” value [6] is on record?
A: Its value is “more efficiently detected in the RS Comet assay than in the RSMN assay”.
